These results are taken from patent publication US20030215462A1, “Use of UGT inhibitors to increase bioavailability” (priority 2001, published 2003).

“And” between values parts separate entries of the source, which are not always exact repeats. Identical values can stand only once.

Data set [1] deals with UGT enzymes of pooled human jejunum microsomes. As to the kind of experiment: Inhibition of 2ME2 glucuronidation (MG1) in pooled human jejunum microsomes. Type of data set: biochemical. The conditions noted are these: jejunum HJ61, 2ME2 50 μM. An excerpt:
(§1) Compounds were eluted using a binary solvent gradient system where solvent A was dilute phosphoric acid (pH 3) and solvent B was 80:20 acetonitrile-methanol. […] Detection was at 280 nm.

Data set [2] has the same test system. As to the kind of experiment: Inhibition of zidovudine glucuronidation in pooled human jejunum microsomes. Particulars: inhibitor 500 μM. In kind it is biochemical.
Description: Increasing the microsomal protein concentration to 1 mg/ml and extending the incubation time to 60 min provided meaningful metabolite levels for inhibition studies.
Data set [3] concerns T1, UGT enzymes of human liver microsomes.
T1 construct: other: liver 062101
Description: Inhibition of 2ME2 glucuronidation (MG1, MG2) in human liver microsomes. The conditions noted are these: liver 062101, 2ME2 50 μM. Type of data set: biochemical.
Excerpt: as §1

Data set [4] deals with T2, UGT enzymes of human liver microsomes (Homo sapiens, UniProt P16662).
T2 construct: residual metabolism (percentage of control), zidovudine glucuronidation; other: liver lot 062101; residual metabolism (percentage of control), zidovudine glucuronidation; residual metabolism (percentage of control)
T2 sequence (P16662 1-529): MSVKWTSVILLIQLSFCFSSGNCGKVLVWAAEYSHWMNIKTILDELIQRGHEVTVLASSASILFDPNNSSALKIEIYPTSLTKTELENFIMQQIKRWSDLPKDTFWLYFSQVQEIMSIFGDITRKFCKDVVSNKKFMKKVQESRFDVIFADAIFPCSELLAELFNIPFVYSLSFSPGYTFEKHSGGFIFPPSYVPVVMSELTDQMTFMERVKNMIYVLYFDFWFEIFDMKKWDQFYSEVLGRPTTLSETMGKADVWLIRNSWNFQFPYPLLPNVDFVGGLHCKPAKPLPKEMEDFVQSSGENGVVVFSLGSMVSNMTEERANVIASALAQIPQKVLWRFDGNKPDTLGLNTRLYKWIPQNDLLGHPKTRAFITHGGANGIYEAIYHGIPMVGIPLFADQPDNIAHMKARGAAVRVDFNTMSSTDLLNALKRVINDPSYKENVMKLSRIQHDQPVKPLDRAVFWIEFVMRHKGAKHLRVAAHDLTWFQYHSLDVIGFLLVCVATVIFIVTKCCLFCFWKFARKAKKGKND
Description: Inhibition of zidovudine glucuronidation in human liver microsomes. Type of data set: biochemical. The conditions noted are these: liver lot 062101. The protocol: Compounds were eluted using a binary solvent gradient system where solvent A was dilute phosphoric acid (pH 3) and solvent B was acetonitrile.
Standardized incubations utilized 500 μM zidovudine substrate, 1 mg/ml microsomal protein, 5 mM UDPGA and a 30 min incubation time. […] Int.

For data set [5] the following is noted: humans; cited from earlier work.

Consider `CC1CCC(C(C)C)C(O)C1` (centres unmarked) [Menthol], for which the “residual metabolism (% of control), 2ME2 MG1” value in data set [1] (inhibitor 50 μM) is given as 98 (4) %; in data set [1] (inhibitor 100 μM), 125 (7) %; in data set [3] (inhibitor 50 μM), 96 (2) %; in data set [3] (inhibitor 100 μM), 92 (2) %. Besides, in data set [2], the “residual metabolism (percentage of control), zidovudine” value is 32 (3) %. Moreover, the figures for the “residual metabolism (% of control), 2ME2 MG2” value in data set [3] (inhibitor 50 μM) and in data set [3] (inhibitor 100 μM) were 86 (1) % and 74 (3) %, respectively. Further, the “residual metabolism (percentage of control), zidovudine glucuronidation” value is 63 (6) % in data set [4] (inhibitor 200 μM); 43 (1) % and 37 (4) % in data set [4] (inhibitor 500 μM); 25 (2) % in data set [4] (inhibitor 1000 μM).
Consider `CCc1c2c(nc3ccc(OC(=O)N4CCC(N5CCCCC5)CC4)cc13)-c1cc3c(c(=O)n1C2)COC(=O)[C@]3(O)CC` [irinotecan], for which the absolute oral bioavailability result in data set [5] is reported as “approximately 13%”.
